From patent US8076338B2, “Kinase modulators and methods of use” (Exelixis, Inc., priority 2004, dated 2011)
Read-outs that look alike come from different tables or passages of the source.

Assays:
AktK = AktK (Homo sapiens, UniProt P31749); experiment: Luciferase-coupled chemiluminescence kinase assay (ATP consumption); assay type: biochemical; details: read-out: AKT-1 IC50
Procedure, shortened: (§1)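 Enzyme at 2.5-5 nM was preincubated 30 min at room temperature with compound in Tris pH 7.5, MgCl2, TX-100, DTT, then reacted with ATP for 3 h at ambient temperature. Remaining ATP was quantified by luciferase-luciferin chemiluminescence, with consumption kept at 25-60%; […].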

p70S6K = p70S6K (Homo sapiens, UniProt P23443); experiment: as above; assay type: biochemical
Procedure, shortened: as §1

Chain of AktK (P31749 whole entry): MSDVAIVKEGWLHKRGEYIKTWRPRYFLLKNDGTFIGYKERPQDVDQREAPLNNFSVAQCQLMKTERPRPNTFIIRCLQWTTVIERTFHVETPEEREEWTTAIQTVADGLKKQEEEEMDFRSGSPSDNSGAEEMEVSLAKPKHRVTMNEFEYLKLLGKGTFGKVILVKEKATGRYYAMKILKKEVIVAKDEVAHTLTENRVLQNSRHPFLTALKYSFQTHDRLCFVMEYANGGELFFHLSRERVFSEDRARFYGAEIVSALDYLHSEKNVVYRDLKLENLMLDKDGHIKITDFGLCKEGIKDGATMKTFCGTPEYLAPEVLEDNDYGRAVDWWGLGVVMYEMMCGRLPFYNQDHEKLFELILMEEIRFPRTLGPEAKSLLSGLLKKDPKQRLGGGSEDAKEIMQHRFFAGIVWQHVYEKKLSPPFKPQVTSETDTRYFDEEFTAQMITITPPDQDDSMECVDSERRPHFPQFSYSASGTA
Chain of p70S6K (P23443 whole entry): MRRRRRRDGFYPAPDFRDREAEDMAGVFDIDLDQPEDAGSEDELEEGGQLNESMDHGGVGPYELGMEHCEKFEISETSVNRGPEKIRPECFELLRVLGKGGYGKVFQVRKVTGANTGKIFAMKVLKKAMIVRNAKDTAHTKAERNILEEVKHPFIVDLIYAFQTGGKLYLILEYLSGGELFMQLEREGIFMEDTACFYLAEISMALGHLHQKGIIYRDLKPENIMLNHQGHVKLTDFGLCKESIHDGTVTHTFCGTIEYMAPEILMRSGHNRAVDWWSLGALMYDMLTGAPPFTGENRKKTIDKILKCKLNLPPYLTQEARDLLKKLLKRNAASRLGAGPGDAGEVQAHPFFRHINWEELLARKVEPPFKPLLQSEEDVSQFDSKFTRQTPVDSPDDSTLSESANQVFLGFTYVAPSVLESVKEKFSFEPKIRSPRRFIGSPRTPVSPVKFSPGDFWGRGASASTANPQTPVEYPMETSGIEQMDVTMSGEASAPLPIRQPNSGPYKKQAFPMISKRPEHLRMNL

Compound | IC50 (AktK; Table 1, class symbols per key) [nM] | IC50 (p70S6K; Table 1, class symbols per key) [nM] | IC50 (AktK) [nM] | IC50 (p70S6K) [nM]
CCN1CCN(CCOc2cc(Cl)cc(N3CCN(c4ncnc5[nH]nc(Br)c45)CC3)c2C)CC1 [Entry 74, 3-bromo-4-[4-(5-chloro-3-{[2-(4-ethylpiperazin-1-yl)ethyl]oxy}-2-methylphenyl)piperazin-1-yl]-1H-pyrazolo[3,4-d]pyrimidine] | < 100 | < 100 |  | 
Cc1ccc(Cl)cc1N1CCN(c2ncnc3[nH]nc(-c4cccc(OCc5ccccc5)c4)c23)CC1 [Entry 336, 4-[4-(5-chloro-2-methylphenyl)piperazin-1-yl]-3-{3-[(phenylmethyl)oxy]phenyl}-1H-pyrazolo[3,4-d]pyrimidine] |  |  | 1000 to 10000 | 1000 to 10000
Cc1ccc(C(=O)NCCN(C)C)cc1N1CCN(c2ncnc3[nH]nc(Br)c23)CC1 [Entry 213, 3-[4-(3-bromo-1H-pyrazolo[3,4-d]pyrimidin-4-yl)piperazin-1-yl]-N-[2-(dimethylamino)ethyl]-4-methylbenzamide] | 1000 to 10000 | < 100 |  | 
Cc1ccc(Cl)cc1N1CCN(c2ncnc3[nH]ncc23)CC1 [Entry 320, 4-[4-(5-chloro-2-methylphenyl)piperazin-1-yl]-1H-pyrazolo[3,4-d]pyrimidine] |  |  | 1000 to 10000 | < 100
Cc1ccc(Cl)cc1N1CCN(c2ncnc3[nH]nc(C)c23)CC1 [Entry 321, 4-[4-(5-chloro-2-methylphenyl)piperazin-1-yl]-3-methyl-1H-pyrazolo[3,4-d]pyrimidine] |  |  | 1000 to 10000 | < 100
FC(F)(F)c1ccnc(N2CCN(c3ncnc4[nH]nc(Br)c34)CC2)n1 [Entry 118, 3-bromo-4-{4-[4-(trifluoromethyl)pyrimidin-2-yl]piperazin-1-yl}-1H-pyrazolo[3,4-d]pyrimidine] | ≥ 10000 | 100 to 1000 |  | 
Clc1cccc(N2CCN(c3ncnc4[nH]nc(Br)c34)CC2)c1 [Entry 134, 3-bromo-4-[4-(3-chlorophenyl)piperazin-1-yl]-1H-pyrazolo[3,4-d]pyrimidine] | ≥ 10000 | < 100 |  | 
Brc1n[nH]c2ncnc(N3CCN(c4ccccc4)CC3)c12 [Entry 152, 3-bromo-4-(4-phenylpiperazin-1-yl)-1H-pyrazolo[3,4-d]pyrimidine] | ≥ 10000 | < 100 |  | 
COc1nccnc1N1CCN(c2ncnc3[nH]nc(Br)c23)CC1 [Entry 133, 3-bromo-4-{4-[3-(methyloxy)pyrazin-2-yl]pipera-zin-1-yl}-1H-pyrazolo[3,4-d]pyrimidine] | ≥ 10000 | 100 to 1000 |  | 
Cc1c(OCCCN2CCOCC2)cc(Cl)cc1N1CCN(c2ncnc3[nH]nc(Br)c23)CC1 [Entry 38, 3-bromo-4-(4-{5-chloro-2-methyl-3-[(3-morpholin-4-ylpropyl)oxy]phenyl}piperazin-1-yl)-1H-pyrazolo[3,4-d]pyrimidine] | 100 to 1000 | < 100 |  | 
COc1cccc(N2CCN(c3ncnc4[nH]nc(Br)c34)CC2)c1 [Entry 65, 3-bromo-4-{4-[3-(methyloxy)phenyl]piperazin-1-yl}-1H-pyrazolo[3,4-d]pyrimidine] | 1000 to 10000 | < 100 |  | 
Cc1c(NCCN2CCCC2)cc(CCc2ccccc2)cc1N1CCN(c2ncnc3[nH]nc(Br)c23)CC1 [Entry 247, 3-[4-(3-bromo-1H-pyrazolo[3,4-d]pyrimidin-4-yl)piperazin-1-yl]-2-methyl-5-(2-phenylethyl)-N-(2-pyrrolidin-1-ylethyl)aniline] | < 100 | < 100 |  | 
Cc1ccc(C(=O)Nc2ccccc2)cc1N1CCN(c2ncnc3[nH]nc(Br)c23)C[C@@H]1C [Entry 177, 3-[(2S)-4-(3-bromo-1H-pyrazolo[3,4-d]pyrimidin-4-yl)-2-methylpiperazin-1-yl]-4-methyl-N-phenylbenzamide] | 100 to 1000 | < 100 |  | 
CCCc1n[nH]c2ncnc(N3CCN(c4cc(Cl)ccc4C)CC3)c12 [Entry 330, 4-[4-(5-chloro-2-methylphenyl)piperazin-1-yl]-3-propyl-1H-pyrazolo[3,4-d]pyrimidine] |  |  | 1000 to 10000 | < 100
Cc1c(NCCN2CCCC2)cc(OCC(F)(F)F)cc1N1CCN(c2ncnc3[nH]nc(Br)c23)CC1 [Entry 285, 3-[4-(3-bromo-1H-pyrazolo[3,4-d]pyrimidin-4-yl)piperazin-1-yl]-2-methyl-N-(2-pyrrolidin-1-ylethyl)-5-[(2,2,2-trifluoroethyl)oxy]aniline] | < 100 | < 100 |  | 
Cc1ccc(C(=O)NCc2ccccc2)cc1N1CCN(c2ncnc3[nH]nc(Br)c23)C[C@@H]1C [Entry 178, 3-[(2S)-4-(3-bromo-1H-pyrazolo[3,4-d]pyrimidin-4-yl)-2-methylpiperazin-1-yl]-4-methyl-N-(phenylmethyl)benzamide] | 1000 to 10000 | < 100 |  | 
CCc1n[nH]c2ncnc(N3CCN(c4cc(Cl)c(OCCN(C)C)cc4C)CC3)c12 [Entry 389, 2-({2-chloro-4-[4-(3-ethyl-1H-pyrazolo[3,4-d]pyrimidin-4-yl)piperazin-1-yl]-5-methylphenyl}oxy)-N,N-dimethylethanamine] |  |  | 1000 to 10000 | 100 to 1000

Compound | IC50 (AktK; Table 1, class symbols per key) [nM] | IC50 (p70S6K; Table 1, class symbols per key) [nM] | IC50 (AktK) [nM] | IC50 (p70S6K) [nM]
Brc1ccc(N2CCN(c3ncnc4[nH]nc(Br)c34)CC2)cc1 [Entry 157, 3-bromo-4-[4-(4-bromophenyl)piperazin-1-yl]-1H-pyrazolo[3,4-d]pyrimidine] | ≥ 10000 | 100 to 1000 |  | 
CCc1n[nH]c2ncnc(N3CCN(c4cc(OCC(F)(CF)CF)cc(Br)c4C)CC3)c12 [Entry 251, 4-[4-(3-bromo-5-{[2,3-difluoro-2-(fluorometh-yl)propyl]oxy}-2-methylphenyl)piperazin-1-yl]-3-ethyl-1H-pyrazolo[3,4-d]pyrimidine] | 100 to 1000 | < 100 |  | 
Cc1c(Br)cc(Cl)cc1N1CCN(c2nc(N)nc3[nH]ncc23)CC1 [Entry 159, 4-[4-(3-bromo-5-chloro-2-methylphenyl)piperazin-1-yl]-1H-pyrazolo[3,4-d]pyrimidin-6-amine] | ≥ 10000 | 1000 to 10000 |  | 
Cc1c(OCCC2CCN(C)CC2)cc(Cl)cc1N1CCN(c2ncnc3[nH]nc(Br)c23)CC1 [Entry 89, 3-bromo-4-[4-(5-chloro-2-methyl-3-{[2-(1-methyl-piperidin-4-yl)ethyl]oxy}phenyl)piperazin-1-yl]-1H-pyrazolo[3,4-d]pyrimidine] | < 100 | < 100 |  | 
Fc1ccc(N2CCN(c3ncnc4[nH]nc(Br)c34)CC2)cc1 [Entry 153, 3-bromo-4-[4-(4-fluorophenyl)piperazin-1-yl]-1H-pyrazolo[3,4-d]pyrimidine] | ≥ 10000 | 100 to 1000 |  | 
Cc1ccc(Cl)cc1N1CCN(c2ncnc3[nH]nc(CCCO)c23)CC1 [Entry 371, 3-{4-[4-(5-chloro-2-methylphenyl)piperazin-1-yl]-1H-pyrazolo[3,4-d]pyrimidin-3-yl}propan-1-ol] |  |  | 1000 to 10000 | < 100
CCc1n[nH]c2ncnc(N3CCN(c4ccc(OCCN5CCCCC5)c(Cl)c4)CC3)c12 [Entry 350, 4-(4-{3-chloro-4-[(2-piperidin-1-ylethyl)oxy]phe-nyl}piperazin-1-yl)-3-ethyl-1H-pyrazolo[3,4-d]pyrimidine] |  |  | ≥ 10000 | 1000 to 10000
CCN(CC)CCNc1cc(Cl)cc(N2CCN(c3ncnc4[nH]nc(Br)c34)CC2)c1C [Entry 28, N′-{3-[4-(3-bromo-1H-pyrazolo[3,4-d]pyrimidin-4-yl)piperazin-1-yl]-5-chloro-2-methylphenyl}-N,N-diethylethane-1,2-diamine] | < 100 | < 100 |  | 
Cc1ccc(Cl)cc1N1CCN(c2ncnc3[nH]nc(-c4ccncc4)c23)CC1 [Entry 364, 4-[4-(5-chloro-2-methylphenyl)piperazin-1-yl]-3-pyridin-4-yl-1H-pyrazolo[3,4-d]pyrimidine] |  |  | 1000 to 10000 | < 100
Brc1n[nH]c2ncnc(N3CCN(c4cnccn4)CC3)c12 [Entry 107, 3-bromo-4-(4-pyrazin-2-ylpiperazin-1-yl)-1H-pyrazolo[3,4-d]pyrimidine] | ≥ 10000 | 100 to 1000 |  | 
COc1ccc(N2CCN(c3ncnc4[nH]nc(Br)c34)CC2)c(OC)c1 [Entry 106, 4-{4-[2,4-bis(methyloxy)phenyl]piperazin-1-yl}-3-bromo-1H-pyrazolo[3,4-d]pyrimidine] | ≥ 10000 | 100 to 1000 |  | 
CC(=O)c1cc(NCCN2CCCC2)c(C)c(N2CCN(c3ncnc4[nH]nc(Br)c34)CC2)c1 [Entry 252, 1-{3-[4-(3-bromo-1H-pyrazolo[3,4-d]pyrimidin-4-yl)piperazin-1-yl]-4-methyl-5-[(2-pyrrolidin-1-ylethyl)amino]phenyl}ethanone] | < 100 | < 100 |  | 
CCc1n[nH]c2ncnc(N3CCN(c4cc(OCC(C)C)cc(NCCN5CCCC5)c4C)CC3)c12 [Entry 172, 3-[4-(3-ethyl-1H-pyrazolo[3,4-d]pyrimidin-4-yl)piperazin-1-yl]-2-methyl-5-[(2-methyl-propyl)oxy]-N-(2-pyrrolidin-1-ylethyl)aniline] | < 100 | < 100 |  | 
Clc1ccccc1N1CCN(c2ncnc3[nH]ccc23)CC1 [Entry 311, 4-[4-(2-chlorophenyl)piperazin-1-yl]-7H-pyrrolo[2,3-d]pyrimidine] |  |  | ≥ 10000 | 100 to 1000
Cc1c(NCCN2CCCC2)cc(OCCC(C)C)cc1N1CCN(c2ncnc3[nH]nc(Br)c23)CC1 [Entry 206, 3-[4-(3-bromo-1H-pyrazolo[3,4-d]pyrimidin-4-yl)piperazin-1-yl]-2-methyl-5-[(3-methylbutyl)oxy]-N-(2-pyrrolidin-1-ylethyl)aniline] | < 100 | < 100 |  | 
CCN1CCN(CCCOc2cc(Cl)cc(N3CCN(c4ncnc5[nH]nc(Br)c45)CC3)c2C)CC1 [Entry 86, 3-bromo-4-[4-(5-chloro-3-{[3-(4-ethylpiperazin-1-yl)propyl]oxy}-2-methylphenyl)piperazin-1-yl]-1H-pyrazolo[3,4-d]pyrimidine] | < 100 | < 100 |  | 
